Source: patent publication US10654884B2 (Vitae Pharmaceuticals, Inc., priority 2014, dated 2020)

Key:
[1] = target: T1, human CD73 (Homo sapiens, UniProt P21589); assay: Inhibition of 5′-Nucleotidase Activity of CD73 (Assay 1); format: biochemical; conditions: human CD73 4 ng/ml, 50 μM CMP, 20 min at RT, malachite green readout; read-out: Assay 1: IC50, inhibition of 5′-nucleotidase activity of CD73
T1 construct: purchased R&D Systems 5795-EN-010
T1 sequence (P21589 27-549): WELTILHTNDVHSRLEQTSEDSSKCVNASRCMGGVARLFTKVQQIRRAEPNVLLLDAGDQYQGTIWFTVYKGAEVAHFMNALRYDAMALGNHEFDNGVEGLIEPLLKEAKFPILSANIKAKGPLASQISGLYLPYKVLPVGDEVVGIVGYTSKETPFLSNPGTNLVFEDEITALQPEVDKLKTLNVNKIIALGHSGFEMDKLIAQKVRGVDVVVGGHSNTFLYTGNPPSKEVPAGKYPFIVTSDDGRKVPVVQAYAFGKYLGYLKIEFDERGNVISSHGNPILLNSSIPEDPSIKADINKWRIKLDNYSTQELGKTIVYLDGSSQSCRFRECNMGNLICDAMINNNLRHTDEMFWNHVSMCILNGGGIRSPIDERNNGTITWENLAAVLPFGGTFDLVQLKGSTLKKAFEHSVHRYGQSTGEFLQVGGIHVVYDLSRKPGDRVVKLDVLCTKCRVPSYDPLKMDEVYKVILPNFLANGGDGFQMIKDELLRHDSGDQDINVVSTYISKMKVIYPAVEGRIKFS
Summary of the method: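 Human CD73 (4 ng/ml final) was incubated with 50 μM CMP in 25 mM Tris-HCl pH 7.4, 0.005% Brij-35 for 20 min at RT. Reactions were stopped with malachite green reagent and absorbance was read at 620 nm. IC50 came from a 4-parameter logistic fit.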

[2] = target: T2, CD73 on U138 neuroglioma cells (Homo sapiens, UniProt P21589); assay: Inhibition of Ecto-5′-Nucleotidase Activity in U138 Neuroglioma Cells (Assay 2); format: cell-based; conditions: 50 μM CMP, 2 hr at 37° C., malachite green readout, read-out: Assay 2: IC50, inhibition of ecto-5′-nucleotidase activity in U138 neuroglioma cells
T2 construct: U138 neuroglioma cells, which express CD73 on their surface; endogenous in cells; host or cells: U138 neuroglioma cells (ATCC)
T2 sequence (P21589 27-549): T1 sequence (P21589 27-549)
Description: Inhibition of Ecto-5′-Nucleotidase Activity in U138 Neuroglioma Cells (Assay 2)
U138 cells were obtained from the American Type Culture Collection (ATCC) (Manassas, Va.), and cultured in complete growth media (DMEM, 10% FBS, 1 mM L-glutamine, 100 U penicillin-streptomycin) at 37° C., 5% CO2. The day before the experiment, cells were seeded at 2,500 cells/well in 100 μL of complete media into 96-well plates. Cells were washed twice with 200 μL of assay buffer (20 mM HEPES, pH 7.4, 137 mM NaCl, 5.4 mM KCl, 1.3 mM CaCl2, 4.2 mM NaHCO3, 1 mg/mL glucose) to remove residual inorganic phosphate. After washing, assays contained serial dilutions of test compounds and 50 μM of cytidine-5′-monophosphate (CMP) in a total volume of 200 μL of assay buffer, with a final DMSO concentration ≤0.1%. After 2 hr at 37° C., 5% CO2, 100 μL of supernatant was removed from the cells and the concentration of inorganic phosphate was determined using malachite green reagent. IC50 values for test compounds were determined from nonlinear regression fits of the data using XLfit (IDBS).

Row | IC50 [1] [nM] | IC50 [2] [nM] | SMILES
1 | < 100 | 100 to 1000 | CCOC(=O)[C@@H](OC[C@H]1O[C@@H](n2cnc3c(N)nc(F)nc32)[C@H](O)[C@@H]1O)P(=O)(O)O (single isomer, unassigned) [Example 52]
2 | 100 to 1000 | > 1000 | CCOC(=O)[C@H](OC[C@H]1O[C@@H](n2cnc3c(N)nc(F)nc32)[C@H](O)[C@@H]1O)P(=O)(O)O (single isomer, unassigned) [Example 52a]
3 | < 100 | < 100 | CC(C)(C)OC(=O)[C@H](OC[C@H]1O[C@@H](n2cnc3c(N)nc(C#N)nc32)[C@H](O)[C@@H]1O)P(=O)(O)O (single isomer, unassigned) [Example 54]
4 | < 100 | 100 to 1000 | CC(C)(C)OC(=O)[C@@H](OC[C@H]1O[C@@H](n2cnc3c(N)nc(C#N)nc32)[C@H](O)[C@@H]1O)P(=O)(O)O (single isomer, unassigned) [Example 54b]
5 | < 100 | < 100 | Nc1nc(Cl)nc2c1ncn2[C@@H]1O[C@H](COC(C(=O)O)P(=O)(O)O)[C@@H](O)[C@H]1O (single isomer, unassigned) [Example 61]
6 | 100 to 1000 | > 1000 | Cc1nc(N)c2ncn([C@@H]3O[C@H](COC(C(=O)O)P(=O)(O)O)[C@@H](O)[C@H]3O)c2n1 (single isomer, unassigned) [Example 69a]
7 | 100 to 1000 | > 1000 | CCOC(=O)[C@H](OC[C@H]1C[C@@H](n2cnc3cccc(Cl)c3c2=O)[C@H](O)[C@@H]1O)P(=O)(O)O (single isomer, unassigned) [Example 70]
8 | 100 to 1000 | > 1000 | CCOC(=O)[C@H](OC[C@H]1C[C@@H](n2cnc3cccc(Br)c3c2=O)[C@H](O)[C@@H]1O)P(=O)(O)O (single isomer, unassigned) [Example 72]
9 | < 100 | < 100 | CCOC(=O)C(OC[C@H]1C[C@@H](n2cnc3c(N)nc(Cl)nc32)[C@H](O)[C@@H]1O)P(=O)(O)O (single isomer, unassigned) [Example 76]
10 | 100 to 1000 | 100 to 1000 | CCOC(=O)C(OC[C@H]1C[C@@H](n2cnc3c(N)nc(Cl)nc32)[C@H](O)[C@@H]1O)P(=O)(O)O (single isomer, unassigned) [Example 76a]
11 | < 100 | 100 to 1000 | CCOC(=O)C(OC[C@H]1C[C@@H](n2nnc3c(N)nc(Cl)nc32)[C@H](O)[C@@H]1O)P(=O)(O)O (single isomer, unassigned) [Example 77]
12 | < 100 | 100 to 1000 | CCOC(=O)C(OC[C@H]1C[C@@H](n2nnc3c(N)nc(Br)nc32)[C@H](O)[C@@H]1O)P(=O)(O)O (single isomer, unassigned) [Example 77a]
13 | < 100 | 100 to 1000 | CC(C)(C)OC(=O)C(OC[C@H]1C[C@@H](n2cnc3c(N)nc(Cl)nc32)[C@H](O)[C@@H]1O)P(=O)(O)O (single isomer, unassigned) [Example 78]
14 | 100 to 1000 | > 1000 | CC(C)(C)OC(=O)C(OC[C@H]1C[C@@H](n2cnc3c(N)nc(Cl)nc32)[C@H](O)[C@@H]1O)P(=O)(O)O (single isomer, unassigned) [Example 78a]
15 | 100 to 1000 | > 1000 | CCOC(=O)[C@](CC(=O)O)(OC[C@H]1O[C@@H](n2cnc3c(N)nc(F)nc32)[C@H](O)[C@@H]1O)P(=O)(O)O (single isomer, unassigned) [Example 79]
16 | < 100 | 100 to 1000 | CCN(CC)C(=O)[C@@H](OC[C@H]1O[C@@H](n2cnc3c(N)nc(Cl)nc32)[C@H](O)[C@@H]1O)P(=O)(O)O (single isomer, unassigned) [Example 82]
17 | < 100 | 100 to 1000 | CCN(CC)C(=O)[C@H](OC[C@H]1O[C@@H](n2cnc3c(N)nc(Cl)nc32)[C@H](O)[C@@H]1O)P(=O)(O)O (single isomer, unassigned) [Example 82a]
18 | < 100 | 100 to 1000 | CCOC(=O)C(OC[C@H]1O[C@@H](n2cnc3ccc(Cl)nc32)[C@H](O)[C@@H]1O)P(=O)(O)O (single isomer, unassigned) [Example 87]
19 | 100 to 1000 | < 100 | CNc1nc(Cl)nc2c1ncn2[C@@H]1O[C@H](COC(C(F)(F)F)P(=O)(O)O)[C@@H](O)[C@H]1O (single isomer, unassigned) [Example 100]
20 | < 100 | < 100 | CNc1nc(Cl)nc2c1ncn2[C@@H]1O[C@H](COC(C(F)(F)F)P(=O)(O)O)[C@@H](O)[C@H]1O (single isomer, unassigned) [Example 100a]
21 | 100 to 1000 | 100 to 1000 | CNc1nc(Cl)nc2c1ncn2[C@@H]1O[C@H](COC(C)(C(=O)O)C(=O)O)[C@@H](O)[C@H]1O [Example 2, (2-(((2R,3S,4R,5R)-5-(2-chloro-6-(methylamino)-9H-purin-9-yl)-3,4-dihydroxytetrahydrofuran-2-yl)methoxy)-2-methylmalonic Acid)]
22 | < 100 | 100 to 1000 | Nc1nc(Cl)nc2c1ncn2[C@@H]1O[C@H](COC(C(=O)O)C(=O)O)[C@@H](O)[C@H]1O [Example 3, 2-(((2R,3S,4R,5R)-5-(6-amino-2-chloro-9H-purin-9-yl)-3,4-dihydroxytetrahydrofuran-2-yl)methoxy)malonic acid]
23 | < 100 | < 100 | Nc1nc(Cl)nc2c1ncn2[C@@H]1O[C@H](COC(Cc2ccc(F)cc2)(C(=O)O)C(=O)O)[C@@H](O)[C@H]1O [Example 4, 2-(((2R,3S,4R,5R)-5-(6-amino-2-chloro-9H-purin-9-yl)-3,4-dihydroxytetrahydrofuran-2-yl)methoxy)-2-(4-fluorobenzyl)malonic acid]
24 | < 100 | < 100 | COCC(OC[C@H]1O[C@@H](n2cnc3c(N)nc(Cl)nc32)[C@H](O)[C@@H]1O)(C(=O)O)C(=O)O [Example 5, 2-(((2R,3S,4R,5R)-5-(6-amino-2-chloro-9H-purin-9-yl)-3,4-dihydroxytetrahydrofuran-2-yl)methoxy)-2-(methoxymethyl)malonic acid]
25 | < 100 | < 100 | Nc1nc(Cl)nc2c1ncn2[C@@H]1O[C@H](COC(COCc2ccccc2)(C(=O)O)C(=O)O)[C@@H](O)[C@H]1O [Example 6, 2-(((2R,3S,4R,5R)-5-(6-amino-2-chloro-9H-purin-9-yl)-3,4-dihydroxytetrahydrofuran-2-yl)methoxy)-2-((benzyloxy)methyl)malonic acid]
26 | < 100 | < 100 | Nc1nc(Cl)nc2c1ncn2[C@@H]1O[C@H](COC(Cc2ccccc2)(C(=O)O)C(=O)O)[C@@H](O)[C@H]1O [Example 7, 2-(((2R,3S,4R,5R)-5-(6-amino-2-chloro-9H-purin-9-yl)-3,4-dihydroxytetrahydrofuran-2-yl)methoxy)-2-benzylmalonic acid]
27 | 100 to 1000 | > 1000 | Nc1nc(Cl)nc2c1ncn2[C@@H]1O[C@H](CO[C@H](C(=O)OCc2ccccc2)P(=O)(O)O)[C@@H](O)[C@H]1O [Example 16a, ((S)-1-(((2R,3S,4R,5R)-5-(6-amino-2-chloro-9H-purin-9-yl)-3,4-dihydroxytetrahydrofuran-2-yl)methoxy)-2-(benzyloxy)-2-oxoethyl)phosphonic Acid]
28 | < 100 | 100 to 1000 | CC(=O)NNC(=O)C(OC[C@H]1O[C@@H](n2cnc3c(N)nc(Cl)nc32)[C@H](O)[C@@H]1O)P(=O)(O)O (stereo partly drawn) [Example 20, (2-(2-acetylhydrazinyl)-1-(((2R,3S,4R,5R)-5-(6-amino-2-chloro-9H-purin-9-yl)-3,4-dihydroxytetrahydrofuran-2-yl)methoxy)-2-oxoethyl)phosphonic Acid]
29 | < 100 | < 100 | CCNc1nc(Cl)nc2c1ncn2[C@@H]1O[C@H](CO[C@@](C)(C(=O)OCC)P(=O)(O)O)[C@@H](O)[C@H]1O [Example 29, ((R)-2-(((2R,3S,4R,5R)-5-(2-chloro-6-(ethylamino)-9H-purin-9-yl)-3,4-dihydroxytetrahydrofuran-2-yl)methoxy)-1-ethoxy-1-oxopropan-2-yl)phosphonic Acid]
